Experiment [1] has as its system Ergosterol Biosynthesis, Candida albicans_C286. The experiment in a line: Inhibition of ergosterol biosynthesis. The experiment is classed as cell-based, Candida albicans. The conditions noted are these: RPMI-1640, 30° C., 48 h, read-out: IC50 Values for Inhabitation of Ergosterol Biosynthesis. How it is done: (§1) Compounds of the invention were tested for their ability to inhibit ergosterol biosynthesis. Testing was performed in 96-well round-bottom microtitration plates. Cell suspensions were prepared in RPMI-1640 medium and were adjusted to give a final inoculum concentration of 0.5×10^3 to 2.5×10^3 cells/ml. The plates were incubated incubated at 30° C. for 48 h before growth was assessed. The MIC of each compounds was defined as the lowest concentration at which there was 80% inhibition of growth compared with that in a drug-free control [O. N. Breivik and J. L. Owades, Agric. Food Chem., 5 (1957) 360-363; T. F. Patterson, S. G. Revankar, W. R. Kirkpatrick, O. Dib, A. W. Fothergill, S. W. Redding, D. A. Sutton and M. G. Rinaldi, J. Clin. Microbiol., 34 (1996) 1794-1797]. Ergosterol content was calculated as a percentage of the wet weight of the cell [National Committee for Clinical Laboratory Standards. 1997. Reference method for broth dilution antifungal susceptibility testing of yeasts, Approved standard. Document M27-A, National Committee for Clinical Laboratory Standards, Wayne, Pa.].

The test system of experiment [2] is Ergosterol Biosynthesis, Aspergillus fumigatus_ND 158. The experiment is described as follows: Inhibition of ergosterol biosynthesis. The experiment is classed as cell-based, Aspergillus fumigatus. The conditions noted are these: RPMI-1640, 30° C., 48 h, read-out: IC50 Values for Inhabitation of Ergosterol Biosynthesis. How it is done:
as §1

Experiment [3] deals with Aspergillus Flavus. The experiment is described as follows: In vitro activity test, agar dilution method (GMMIC). It is filed as cell-based. The conditions noted are these: 9 organisms, Kimmig's agar, 25° C. How it is done: (§2) Organisms listed in Table 4 were tested according to an agar dilution method: Suspensions of each microorganism were prepared to contain […] colony forming units (cfu)/mL. All drugs were dissolved in a few drops of DMSO then diluted with ethanol—water (1/1, v/v) to make a stock solution of 500 μg/mL. The agar dilution method was performed in a medium of Kimmig's agar (K. A., Merck) −0.5% glycerol [R. A. Fromtling, G. K. Abruzzo and A. Ruiz, Mycopathologia, 106 (1989) 163-166]. Plates of Kimmig's agar containing serial dilutions (25 to 0.01 μg/mL) of the drugs were inoculated with 10 μL of the fungal inocula and incubated at 25° C. […] for yeasts and up to 5 days for filamentous fungi. Following incubation, GMMICs (geometric mean minimum inhibitory concentration μg/mL) were determined. In the table POCZ indicates posaconazole, ITRZ indicates itraconazole, and FLUZ indicates fluconazole. [Patterson, T. F., S. G. Revankar, W. R. Kirkpatrick, O. Dib, A. W. Fothergill, S. W. Redding, D. A. Sutton, and M. G. Rinaldi, J. Clin. Microbiol. 34 (1996) 1794-1797].

Experiment [4] relates to Candida Krusei. The description is as above. It is filed as cell-based. The conditions noted are these: 22 organisms, Kimmig's agar, 25° C. How it is done:
as §2

The test system of experiment [5] is Cryptococcus neoformans. The experiment is described as above. It is filed as cell-based. The settings on record: 10 organisms, Kimmig's agar, 25° C. How it is done: as §2
The test system of experiment [6] is Microsporum canis. Described as above. It is filed as cell-based. The conditions noted are these: 6 organisms, Kimmig's agar, 25° C. How it is done:
as §2

For experiment [7], the system named is Trichophyton rubrum. The experiment is described as above. The experiment is classed as cell-based. The settings on record: 17 organisms, Kimmig's agar, 25° C. How it is done:
as §2

From patent US20100143455A1, “Triazole antifungal agents” (priority 2008, published 2010) come the findings set out here.

Consider `CCC(C(C)O)n1ncn(-c2ccc(N3CCN(c4ccc(SCC5OCC(Cn6cncn6)(c6ccc(F)cc6F)O5)cc4)CC3)cc2)c1=O` (centres unmarked) [I-Rf (D), 4-(4-(4-(4-((4-((1H-1,2,4-triazol-1-yl)methyl)-4-(2,4-difluorophenyl)-1,3-dioxolan-2-yl)methylthio)phenyl)piperazin-1-yl)phenyl)-1-(2-hydroxypentan-3-yl)-1H-1,2,4-triazol-5(4H)-one], for which the values for the IC50 in experiment [1] and in experiment [2] were 33.4 nM and 9.9 nM, respectively.

As to `CCC(C)n1ncn(-c2ccc(N3CCN(c4ccc(OCC5COC(Cn6cncn6)(c6ccc(Cl)cc6Cl)O5)cc4)CC3)cc2)c1=O` (centres unmarked) [ITRZ, itraconazole], the “GMMICS (geometric mean minimum inhibitory concentration)” value worked out at 0.35 µg/mL in experiment [3]; 0.60 µg/mL in experiment [4]; 0.49 µg/mL in experiment [5]; 1.2 µg/mL in experiment [6]; 3.1 µg/mL in experiment [7].

With `CC[C@@H]([C@H](C)O)n1ncn(-c2ccc(N3CCN(c4ccc(OC[C@@H]5CO[C@@](Cn6cncn6)(c6ccc(F)cc6F)C5)cc4)CC3)cc2)c1=O` [POCZ, posaconazole, reference compound], in experiment [2], the concentration for half-maximal inhibition (IC50) worked out at 11.8 nM.

On to `C=CC(C)n1ncn(-c2ccc(N3CCN(c4ccc(SCC5OCC(Cn6cncn6)(c6ccc(F)cc6F)O5)cc4)CC3)cc2)c1=O` (centres unmarked) [I-Rg (D), 4-(4-(4-(4-((4-((1H-1,2,4-triazol-1-yl)methyl)-4-(2,4-difluorophenyl)-1,3-dioxolan-2-yl)methylthio)phenyl)piperazin-1-yl)phenyl)-1-(but-3-en-2-yl)-1H-1,2,4-triazol-5(4H)-one], for which the IC50 in experiment [1] was 33.8 nM; in experiment [2] it was 10.2 nM.

As for `CC(O)C(C)n1ncn(-c2ccc(N3CCN(c4ccc(SCC5OCC(Cn6cncn6)(c6ccc(F)cc6F)O5)cc4)CC3)cc2)c1=O` (centres unmarked) [I-Re (D), 4-(4-(4-(4-((4-((1H-1,2,4-triazol-1-yl)methyl)-4-(2,4-difluorophenyl)-1,3-dioxolan-2-yl)methylthio)phenyl)piperazin-1-yl)phenyl)-1-(3-hydroxybutan-2-yl)-1H-1,2,4-triazol-5(4H)-one], the IC50 in experiment [1] is 31.9 nM.

For the compound `CCC(C(C)O)n1ncn(-c2ccc(N3CCN(c4ccc(CSC5OCC(Cn6cncn6)(c6ccc(F)cc6F)O5)cc4)CC3)cc2)c1=O` (centres unmarked) [II-Rf (D), 4-(4-(4-(4-((4-((1H-1,2,4-triazol-1-yl)methyl)-4-(2,4-difluorophenyl)-1,3-dioxolan-2-ylthio)methyl)phenyl)piperazin-1-yl)phenyl)-1-(2-hydroxypentan-3-yl)-1H-1,2,4-triazol-5(4H)-one], the half-inhibitory concentration (IC50) came out at 31.1 nM in experiment [1] and 9.8 nM in experiment [2].

As for `CCC(C)n1ncn(-c2ccc(N3CCN(c4ccc(CSC5OCC(Cn6cncn6)(c6ccc(F)cc6F)O5)cc4)CC3)cc2)c1=O` (centres unmarked) [II-Ra (D), 4-(4-(4-(4-((4-((1H-1,2,4-triazol-1-yl)methyl)-4-(2,4-difluorophenyl)-1,3-dioxolan-2-ylthio)methyl)phenyl)piperazin-1-yl)phenyl)-1-sec-butyl-1H-1,2,4-triazol-5(4H)-one], the IC50 in experiment [1] was determined as 34.3 nM; in experiment [2], 10.3 nM.

In the case of `CCC(C(C)O)n1ncn(-c2ccc(N3CCN(c4ccc(SCC5CCC(Cn6cncn6)(c6ccc(F)cc6F)O5)cc4)CC3)cc2)c1=O` (centres unmarked) [I-Rf (T), 4-(4-(4-(4-((5-((1H-1,2,4-triazol-1-yl)methyl)-5-(2,4-difluorophenyl)tetrahydrofuran-2-yl)methylthio)phenyl)piperazin-1-yl)phenyl)-1-(2-hydroxypentan-3-yl)-1H-1,2,4-triazol-5(4H)-one], the half-maximal inhibitory concentration (IC50) is 32.1 nM in experiment [1] and 9.5 nM in experiment [2].

As to `CC(O)C(C)n1ncn(-c2ccc(N3CCN(c4ccc(SCC5CCC(Cn6cncn6)(c6ccc(F)cc6F)O5)cc4)CC3)cc2)c1=O` (centres unmarked) [I-Re (T), 4-(4-(4-(4-((5-((1H-1,2,4-triazol-1-yl)methyl)-5-(2,4-difluorophenyl)tetrahydrofuran-2-yl)methylthio)phenyl)piperazin-1-yl)phenyl)-1-(3-hydroxybutan-2-yl)-1H-1,2,4-triazol-5(4H)-one], the IC50 in experiment [2] turned out to be 9.6 nM.

Regarding `CCC(C(C)O)n1ncn(-c2ccc(N3CCN(c4ccc(CSC5CCC(Cn6cncn6)(c6ccc(F)cc6F)O5)cc4)CC3)cc2)c1=O` (centres unmarked) [II-Rf (T), 4-(4-(4-(4-((5-((1H-1,2,4-triazol-1-yl)methyl)-5-(2,4-difluorophenyl)tetrahydrofuran-2-ylhio)methyl)phenyl)piperazin-1-yl)phenyl)-1-(2-hydroxypentan-3-yl)-1H-1,2,4-triazol-5(4H)-one], the IC50 in experiment [1] amounted to 32.9 nM; in experiment [2], 9.3 nM.

The IC50 is the midpoint of a concentration-inhibition curve.
